# Biological target: human integrin αvβ6 (Homo sapiens (Human), UniProt P06756+P18564)
# Assay: Proximity-based integrin receptor binding assay (ALPHASCREEN) for inhibitor potency
# Conditions: inhibition of binding of TGF-b1 LAP to human integrin αvβ6; values given in ranges
# Method: To gauge the potency of inhibitors of binding to human integrin αvβ6, inhibitor compounds and integrin were incubated together with TGF-b1 LAP and biotinylated anti-LAP antibody plus acceptor and donor beads, following the manufacture's recommendations. The donor beads were coated with streptavidin. […] All incubations occurred at room temperatures in 50 mM Tris-HCl, pH 7.5, 0.1% BSA supplemented with 1 mM each CaCl2 and MgCl2.
# The order of reagent addition was as follows:
# 1. Alpha-v-beta-6 integrin, test inhibitor compound, LAP, biotinylated anti-LAP antibody and acceptor beads were all added together.
# 2. After 2 hours, donor beads were added. After another 30 minute incubation, samples were then read.
# Integrin binding was evaluated by exciting donor beads at 680 nm, and measuring the fluorescent signal produced, between 520-620 nm, using a Biotek Instruments (Winooski, Vt., USA) SynergyNeo2 multimode plate reader. […] Data analysis for IC50 determinations was carried out by nonlinear four parameter logistic regression analysis using Dotmatics ELN Software (Core Informatics Inc., Branford, Conn.).
# Chain of human integrin αvβ6 (P06756 31-992): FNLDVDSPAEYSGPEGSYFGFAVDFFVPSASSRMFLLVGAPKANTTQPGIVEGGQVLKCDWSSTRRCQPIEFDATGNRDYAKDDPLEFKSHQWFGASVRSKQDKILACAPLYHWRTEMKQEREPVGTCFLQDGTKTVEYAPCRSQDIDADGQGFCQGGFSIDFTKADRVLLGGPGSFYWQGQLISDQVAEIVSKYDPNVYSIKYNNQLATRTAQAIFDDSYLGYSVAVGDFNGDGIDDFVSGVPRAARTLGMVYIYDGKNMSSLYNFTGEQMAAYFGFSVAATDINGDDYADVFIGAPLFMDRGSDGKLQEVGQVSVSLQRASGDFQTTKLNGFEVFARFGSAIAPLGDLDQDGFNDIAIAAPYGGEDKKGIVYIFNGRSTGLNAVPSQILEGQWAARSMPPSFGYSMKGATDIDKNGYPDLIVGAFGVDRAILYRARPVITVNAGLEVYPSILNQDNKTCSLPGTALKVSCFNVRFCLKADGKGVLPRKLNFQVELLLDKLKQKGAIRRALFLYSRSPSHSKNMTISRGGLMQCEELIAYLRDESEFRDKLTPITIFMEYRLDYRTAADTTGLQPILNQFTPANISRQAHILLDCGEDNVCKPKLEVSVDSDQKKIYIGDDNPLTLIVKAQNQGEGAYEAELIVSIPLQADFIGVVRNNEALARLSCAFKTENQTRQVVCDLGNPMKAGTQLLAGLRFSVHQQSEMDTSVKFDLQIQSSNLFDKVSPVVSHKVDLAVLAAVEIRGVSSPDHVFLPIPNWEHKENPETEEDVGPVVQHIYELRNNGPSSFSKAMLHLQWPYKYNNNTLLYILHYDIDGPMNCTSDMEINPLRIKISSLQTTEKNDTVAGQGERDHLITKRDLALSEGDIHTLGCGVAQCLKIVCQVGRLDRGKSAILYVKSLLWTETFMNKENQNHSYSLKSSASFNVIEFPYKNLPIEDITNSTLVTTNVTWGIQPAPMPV
# Chain of human integrin αvβ6 (P18564 22-707): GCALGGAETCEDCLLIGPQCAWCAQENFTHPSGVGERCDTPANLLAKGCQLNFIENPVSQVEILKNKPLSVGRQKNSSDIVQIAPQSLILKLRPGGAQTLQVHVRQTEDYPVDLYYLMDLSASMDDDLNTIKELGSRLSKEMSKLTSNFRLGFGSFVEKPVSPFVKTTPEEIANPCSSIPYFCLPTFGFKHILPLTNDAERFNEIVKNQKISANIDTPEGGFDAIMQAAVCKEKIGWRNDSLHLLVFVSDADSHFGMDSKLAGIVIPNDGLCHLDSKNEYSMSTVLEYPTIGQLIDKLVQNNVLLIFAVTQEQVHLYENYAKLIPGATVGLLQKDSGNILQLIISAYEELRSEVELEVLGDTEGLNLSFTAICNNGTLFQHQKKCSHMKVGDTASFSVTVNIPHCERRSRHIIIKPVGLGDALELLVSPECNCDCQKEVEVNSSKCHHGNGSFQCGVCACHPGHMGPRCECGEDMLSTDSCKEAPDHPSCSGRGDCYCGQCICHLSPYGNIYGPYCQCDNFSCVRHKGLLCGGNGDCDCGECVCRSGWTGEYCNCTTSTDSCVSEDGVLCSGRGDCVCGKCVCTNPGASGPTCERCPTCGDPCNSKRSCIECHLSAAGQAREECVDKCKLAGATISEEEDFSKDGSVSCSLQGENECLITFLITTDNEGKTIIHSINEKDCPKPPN
row,SMILES,IC50 [nM]
1,"O=C(N[C@@H](CCO[C@H]1C[C@H](CCc2ccc3c(n2)NCCC3)C1)C(=O)O)c1ccc(Cl)c(Cl)c1 [Compound 34, N-(3,4-dichlorobenzoyl)-O-(trans-3-(2-(5,6,7,8-tetrahydro-1,8-naphthyridin-2-yl)ethyl)cyclobutyl)homoserine]",50 to 250
2,"O=C(N[C@@H](CCO[C@H]1C[C@H](CCc2ccc3c(n2)NCCC3)C1)C(=O)O)c1ccccn1 [Compound 35, N-picolinoyl-O-(trans-3-(2-(5,6,7,8-tetrahydro-1,8-naphthyridin-2-yl)ethyl)cyclobutyl)homoserine]",50 to 250
3,"Cn1ncc2c(C(=O)N[C@@H](CCO[C@H]3C[C@H](CCc4ccc5c(n4)NCCC5)C3)C(=O)O)cccc21 [Compound 38, N-(1-methyl-1H-indazole-4-carbonyl)-O-(trans-3-(2-(5,6,7,8-tetrahydro-1,8-naphthyridin-2-yl)ethyl)cyclobutyl)homoserine]",50 to 250
4,"Cn1cc2ccc(C(=O)N[C@@H](CCO[C@H]3C[C@H](CCc4ccc5c(n4)NCCC5)C3)C(=O)O)cc2n1 [Compound 39, N-(2-methyl-2H-indazole-6-carbonyl)-O-(trans-3-(2-(5,6,7,8-tetrahydro-1,8-naphthyridin-2-yl)ethyl)cyclobutyl)homoserine]",50 to 250
5,"Cn1cc2cc(C(=O)N[C@@H](CCO[C@H]3C[C@H](CCc4ccc5c(n4)NCCC5)C3)C(=O)O)ccc2n1 [Compound 40, N-(2-methyl-2H-indazole-5-carbonyl)-O-(trans-3-(2-(5,6,7,8-tetrahydro-1,8-naphthyridin-2-yl)ethyl)cyclobutyl)homoserine]",50 to 250
6,"O=C(O)C(CCO[C@H]1C[C@H](CCc2ccc3c(n2)NCCC3)C1)NC(=O)[C@@H](CO)c1ccccc1 (stereo partly drawn) [Compound 42, N—((R)-3-hydroxy-2-phenylpropanoyl)-O-(trans-3-(2-(5,6,7,8-tetrahydro-1,8-naphthyridin-2-yl)ethyl)cyclobutyl)homoserine]",50 to 250
7,"O=C(O)C(CCO[C@H]1C[C@H](CCc2ccc3c(n2)NCCC3)C1)NC(=O)[C@@H](CO)c1ccccc1 (stereo partly drawn) [Compound 43, N—((R)-3-hydroxy-2-phenylpropanoyl)-O-(trans-3-(2-(5,6,7,8-tetrahydro-1,8-naphthyridin-2-yl)ethyl)cyclobutyl)homoserine]",250 to 1000
8,"CCC(CC)C(=O)N[C@@H](CCO[C@H]1C[C@H](CCc2ccc3c(n2)NCCC3)C1)C(=O)O [Compound 44, N-(2-ethylbutanoyl)-O-(trans-3-(2-(5,6,7,8-tetrahydro-1,8-naphthyridin-2-yl)ethyl)cyclobutyl)homoserine]",50 to 250
9,"CCC(CC)CC(=O)NC(CCO[C@H]1C[C@H](CCc2ccc3c(n2)NCCC3)C1)C(=O)O (stereo partly drawn) [Compound 45, N-(3-ethylpentanoyl)-O-(trans-3-(2-(5,6,7,8-tetrahydro-1,8-naphthyridin-2-yl)ethyl)cyclobutyl)homoserine]",50 to 250
10,"O=C(O)C(CCO[C@H]1C[C@H](CCc2ccc3c(n2)NCCC3)C1)NC(=O)[C@H](CO)c1ccccc1 (stereo partly drawn) [Compound 46, N—((S)-3-hydroxy-2-phenylpropanoyl)-O-(trans-3-(2-(5,6,7,8-tetrahydro-1,8-naphthyridin-2-yl)ethyl)cyclobutyl)homoserine]",250 to 1000
11,"O=C(O)C(CCO[C@H]1C[C@H](CCc2ccc3c(n2)NCCC3)C1)NC(=O)[C@H](CO)c1ccccc1 (stereo partly drawn) [Compound 47, N—((S)-3-hydroxy-2-phenylpropanoyl)-O-(trans-3-(2-(5,6,7,8-tetrahydro-1,8-naphthyridin-2-yl)ethyl)cyclobutyl)homoserine]",250 to 1000
12,"Cn1ccc2cc(C(=O)N[C@@H](CCO[C@H]3C[C@H](CCc4ccc5c(n4)NCCC5)C3)C(=O)O)cnc21 [Compound 48, N-(1-methyl-1H-pyrrolo[2,3-b]pyridine-5-carbonyl)-O-(trans-3-(2-(5,6,7,8-tetrahydro-1,8-naphthyridin-2-yl)ethyl)cyclobutyl)homoserine]",250 to 1000
13,"O=C(NC(CCO[C@H]1C[C@H](CCc2ccc3c(n2)NCCC3)C1)C(=O)O)c1cccc(-c2cncs2)c1 (stereo partly drawn) [Compound 49, O-(trans-3-(2-(5,6,7,8-tetrahydro-1,8-naphthyridin-2-yl)ethyl)cyclobutyl)-N-(3-(thiazol-5-yl)benzoyl)homoserine]",50 to 250
14,"O=C(N[C@@H](CCO[C@H]1C[C@H](CCc2ccc3c(n2)NCCC3)C1)C(=O)O)c1cccc(CO)c1 [Compound 50, N-(3-(hydroxymethyl)benzoyl)-O-(trans-3-(2-(5,6,7,8-tetrahydro-1,8-naphthyridin-2-yl)ethyl)cyclobutyl)homoserine]",< 50
15,"O=C(N[C@@H](CCO[C@H]1C[C@H](CCc2ccc3c(n2)NCCC3)C1)C(=O)O)c1cccc2ncccc12 [Compound 51, N-(quinoline-5-carbonyl)-O-(trans-3-(2-(5,6,7,8-tetrahydro-1,8-naphthyridin-2-yl)ethyl)cyclobutyl)homoserine]",< 50
16,"O=C(N[C@@H](CCO[C@H]1C[C@H](CCc2ccc3c(n2)NCCC3)C1)C(=O)O)c1ccccc1C1CC1 [Compound 52, N-(2-cyclopropylbenzoyl)-O-(trans-3-(2-(5,6,7,8-tetrahydro-1,8-naphthyridin-2-yl)ethyl)cyclobutyl)homoserine]",< 50
17,"O=C(N[C@@H](CCO[C@H]1C[C@H](CCc2ccc3c(n2)NCCC3)C1)C(=O)O)c1ccc2cccnc2c1 [Compound 53, N-(quinoline-7-carbonyl)-O-(trans-3-(2-(5,6,7,8-tetrahydro-1,8-naphthyridin-2-yl)ethyl)cyclobutyl)homoserine]",50 to 250
18,"O=C(N[C@@H](CCO[C@H]1C[C@H](CCc2ccc3c(n2)NCCC3)C1)C(=O)O)c1ccc2ncccc2c1 [Compound 54, N-(quinoline-6-carbonyl)-O-(trans-3-(2-(5,6,7,8-tetrahydro-1,8-naphthyridin-2-yl)ethyl)cyclobutyl)homoserine]",50 to 250
19,"O=C(N[C@@H](CCO[C@H]1C[C@H](CCc2ccc3c(n2)NCCC3)C1)C(=O)O)c1cccc2cccnc12 [Compound 55, N-(quinoline-8-carbonyl)-O-(trans-3-(2-(5,6,7,8-tetrahydro-1,8-naphthyridin-2-yl)ethyl)cyclobutyl)homoserine]",250 to 1000

# Next, values leading:
row,IC50 [nM],SMILES
1,< 50,"O=C(N[C@@H](CCO[C@H]1C[C@H](CCc2ccc3c(n2)NCCC3)C1)C(=O)O)c1cccc(Cl)c1F [Compound 27, N-(3-chloro-2-fluorobenzoyl)-O-(trans-3-(2-(5,6,7,8-tetrahydro-1,8-naphthyridin-2-yl)ethyl)cyclobutyl)homoserine]"
2,< 50,"O=C(N[C@@H](CCO[C@H]1C[C@H](CCc2ccc3c(n2)NCCC3)C1)C(=O)O)c1cc(F)cc(F)c1 [Compound 28, N-(3,5-difluorobenzoyl)-O-(trans-3-(2-(5,6,7,8-tetrahydro-1,8-naphthyridin-2-yl)ethyl)cyclobutyl)homoserine]"
3,< 50,"O=C(N[C@@H](CCO[C@H]1C[C@H](CCc2ccc3c(n2)NCCC3)C1)C(=O)O)c1ccc(F)c(F)c1 [Compound 29, N-(3,4-difluorobenzoyl)-O-(trans-3-(2-(5,6,7,8-tetrahydro-1,8-naphthyridin-2-yl)ethyl)cyclobutyl)homoserine]"
4,< 50,"O=C(N[C@@H](CCO[C@H]1C[C@H](CCc2ccc3c(n2)NCCC3)C1)C(=O)O)c1cccc(Cl)c1Cl [Compound 30, N-(2,3-dichlorobenzoyl)-O-(trans-3-(2-(5,6,7,8-tetrahydro-1,8-naphthyridin-2-yl)ethyl)cyclobutyl)homoserine]"
5,< 50,"O=C(N[C@@H](CCO[C@H]1C[C@H](CCc2ccc3c(n2)NCCC3)C1)C(=O)O)c1c(F)cccc1Cl [Compound 31, N-(2-chloro-6-fluorobenzoyl)-O-(trans-3-(2-(5,6,7,8-tetrahydro-1,8-naphthyridin-2-yl)ethyl)cyclobutyl)homoserine]"
6,< 50,"O=C(N[C@@H](CCO[C@H]1C[C@H](CCc2ccc3c(n2)NCCC3)C1)C(=O)O)c1c(F)cccc1F [Compound 32, N-(2,6-difluorobenzoyl)-O-(trans-3-(2-(5,6,7,8-tetrahydro-1,8-naphthyridin-2-yl)ethyl)cyclobutyl)homoserine]"
7,< 50,"O=C(N[C@@H](CCO[C@H]1C[C@H](CCc2ccc3c(n2)NCCC3)C1)C(=O)O)c1cc(F)ccc1F [Compound 33, N-(2,5-difluorobenzoyl)-O-(trans-3-(2-(5,6,7,8-tetrahydro-1,8-naphthyridin-2-yl)ethyl)cyclobutyl)homoserine]"
8,< 50,"O=C(N[C@@H](CCO[C@H]1C[C@H](CCc2ccc3c(n2)NCCC3)C1)C(=O)O)c1cccnc1 [Compound 36, N-nicotinoyl-O-(trans-3-(2-(5,6,7,8-tetrahydro-1,8-naphthyridin-2-yl)ethyl)cyclobutyl)homoserine]"
9,< 50,"O=C(NC(CCO[C@H]1C[C@H](CCc2ccc3c(n2)NCCC3)C1)C(=O)O)c1ccncc1 (stereo partly drawn) [Compound 37, N-isonicotinoyl-O-(trans-3-(2-(5,6,7,8-tetrahydro-1,8-naphthyridin-2-yl)ethyl)cyclobutyl)homoserine]"
10,< 50,"Cn1ccc2c(C(=O)N[C@@H](CCO[C@H]3C[C@H](CCc4ccc5c(n4)NCCC5)C3)C(=O)O)ccnc21 [Compound 41, N-(1-methyl-1H-pyrrolo[2,3-b]pyridine-4-carbonyl)-O-(trans-3-(2-(5,6,7,8-tetrahydro-1,8-naphthyridin-2-yl)ethyl)cyclobutyl)homoserine]"

# Source: patent US11180494B2, “Substituted amino acids as integrin inhibitors” (Pliant Therapeutics, Inc., priority 2018, dated 2021)
